# According to patent US10016409B2, “Method for improving interstitial flow” (priority 2012, dated 2018):
# Where a name gives a salt, the structure may show the parent alone.
# Experiments:
# dementia patients = assay: Clinical record analysis, MMSE change in dementia patients (MMSE less than or equal to 21) under donepezil hydrochloride oral administration; type: in vivo, human; details: dementia patients MMSE less than or equal to 21
# Text: Patients subjected to oral administration of donepezil hydrochloride, having an observation period of one or more years before the MMSE test date, and having first MMSE scores less than or equal to 26 were picked up from a clinical record. Among the patients, patients recorded to have been consecutively administered with cilostazol for 6 months or more in the observation period were classified as a donepezil hydrochloride and cilostazol combined use group (69 cases), and patients recorded to have experienced no cilostazol oral administration were classified as a donepezil hydrochloride single use group (87 cases). Cilostazol was oral-administered at a dosage of 50 to 200 mg/day in the morning and evening, and donepezil hydrochloride was administered at a dosage of 5 mg/day once in a day.
# As a dementia patient group oral-administered with donepezil hydrochloride, patients with MMSE scores less than or equal to 21 were extracted. Then, the donepezil hydrochloride single use group (the single use group) was 51 cases (17 males and 34 females, average age: 78.2 years old) and the donepezil hydrochloride and cilostazol combined use group (the combined use group) was 35 cases (14 males and 21 females, average age: 79.3 years old). The average dosage of cilostazol in the combined use group was 139 mg/day.
# MCI patients [1] = details: cited from earlier work; for conversion from MCI to Alzheimer: Non-patent Document 3; for effectiveness on MCI patients: clinical trials, Guidelines for Management of Dementia
# MCI patients [2] = assay: Clinical record analysis, MMSE change in MCI patients (MMSE 22 to 26) under donepezil hydrochloride oral administration; type: in vivo, human; details: MCI patients MMSE 22-26
# Text: Patients subjected to oral administration of donepezil hydrochloride, having an observation period of one or more years before the MMSE test date, and having first MMSE scores less than or equal to 26 were picked up from a clinical record. Among the patients, patients recorded to have been consecutively administered with cilostazol for 6 months or more in the observation period were classified as a donepezil hydrochloride and cilostazol combined use group (69 cases), and patients recorded to have experienced no cilostazol oral administration were classified as a donepezil hydrochloride single use group (87 cases). Cilostazol was oral-administered at a dosage of 50 to 200 mg/day in the morning and evening, and donepezil hydrochloride was administered at a dosage of 5 mg/day once in a day. Among the patients, patients with MMSE scores greater than or equal to 22 and less than or equal to 26 were extracted as an MCI patient group. Then, 36 cases (16 males and 20 females, average age: 78.4 years old) of the donepezil hydrochloride single use group (hereinafter referred to as a single use group) and 34 cases (15 males and 19 females, average age: 77.2 years old) of the donepezil hydrochloride and cilostazol combined use group (hereinafter referred to as combined use group) were found. The average dosage of cilostazol in the combined use group was 121 mg/day. […] Measurement of MMSE was conducted at least twice in the observation period, and the first and last test results were selected for analysis.
compound,measurement,setting,value
COc1cc2c(cc1OC)C(=O)C(CC1CCN(Cc3ccccc3)CC1)C2 (stereo not drawn) [donepezil hydrochloride],change rate of MMSE item 5 of delayed recall,dementia patients; p=0.37,−0.15
same,change rate of MMSE item 2 of orientation to location,dementia patients; p=0.86,−0.13
same,change rate of MMSE item 1 of orientation to time,dementia patients; p=0.89,−0.16
same,MMSE change rate,"dementia patients; per observation period, average±standard error, p=0.72 between groups",−0.90±037
same,conversion from MCI to Alzheimer,MCI patients [1],do not affect conversion from MCI to Alzheimer
same,effectiveness on MCI patients,MCI patients [1],very limited or is not present
same,MMSE change rate,"MCI patients [2]; increment or decrement of MMSE score/observation period [year], average±standard error, p=0.022 between groups",−2.23±0.69
same,change rate of MMSE item 1 of orientation to time,"MCI patients [2]; per observation period [year], p=0.003",−0.85
same,change rate of MMSE item 2 of orientation to location,"MCI patients [2]; per observation period [year], p=0.017",−0.31
same,change rate of MMSE item 5 of delayed recall,"MCI patients [2]; per observation period [year], p=0.045",−0.28
CCN(C)C(=O)Oc1cccc([C@H](C)N(C)C)c1 [rivastigmine],effectiveness on MCI patients,MCI patients [1],very limited or is not present
CS(=O)(=O)c1ccc(C2=C(c3ccccc3)C(=O)OC2)cc1 [rofecoxib],prophylactic effects (dementia or MCI),"MCI patients [1]; guideline p. 116, Other Drugs (2)",no prophylactic effects
estrogen,risk of onset of dementia or MCI,"MCI patients [1]; RCT, postmenopausal women of 65 years of age or more without dementia",increased the risk of onset of dementia or MCI significantly
vitamin E,conversion from MCI to Alzheimer,MCI patients [1],do not affect conversion from MCI to Alzheimer
same,dementia prophylactic effect / prophylactic effect against conversion to Alzheimer,MCI patients [1]; RCT directed to MCI patients,neither dementia prophylactic effect nor prophylactic effect against conversion to Alzheimer was obtained
